Where two headings read alike, the source gives them in different places.
Experiments:
[1] = system: Escherichia coli (strain JM109); assay: MIC determination against Escherichia coli (Andrews protocol); type: cell-based; conditions: for MIC: Escherichia coli, read-out: MIC E. coli
Method: (§1) Minimum Inhibitory Concentrations (MICs) for the compounds prepared were determined against Escherichia coli (strain JM109) and Staphylococcus aureus (strain 9518) using the protocols described by Andrews (J. Antimicrob. Chemother., 2001, 48, Suppl. S1, 5-16).

[2] = system: Staphylococcus aureus (strain 9518); assay: MIC determination against Staphylococcus aureus (Andrews protocol); type: cell-based; conditions: for MIC: Staphylococcus aureus, read-out: MIC S. aureus
Method: as §1

[3] = Staphylococcus aureus strain 9518

| melting point [°C] | MIC ([1]; Escherichia coli strain JM109) [µg/mL] | MIC [2, 3] [µg/mL] | SMILES | other results |
| --- | --- | --- | --- | --- |
| 242 to 244 | 10 to 32 | 32 to 100 | Cl.N=C(N)N/N=C/c1cccc(OCc2cc(Cl)ccc2Cl)c1Cl [Compound 51g, (E)-Amino(2-(2-chloro-3-((2,5-dichlorobenzyl)oxy)benzylidene)hydrazinyl) methaniminium chloride] |  |
| 268 to 270 | 1 to 10 | 32 to 100 | Cl.N=C(N)N/N=C/c1cccc(OCc2ccc(Cl)cc2Cl)c1Cl [Compound 51f, (E)-Amino(2-(2-chloro-3-((2,4-dichlorobenzyl)oxy)benzylidene)hydrazinyl) methaniminium chloride] |  |
| 198 to 201 |  |  | Cl.N=C(N)N/N=C/c1cccc(OCc2cccc(C(F)(F)F)c2)c1Cl |  |
| 203 to 205 | 1 to 10 | 1 to 10 | Cl.N=C(N)N/N=C/c1cccc(OCc2ccccc2)c1Cl [Compound 51b, (E)-Amino(2-(3-(benzyloxy)-2-chlorobenzylidene)hydrazinyl)methaniminium chloride] |  |
| 250 to 253 | 1 to 10 | 32 to 100 | Cl.N=C(N)N/N=C/c1cccc(OCc2cccc(Cl)c2Cl)c1Cl [Compound 51d, (E)-Amino(2-(2-chloro-3-((2,3-dichlorobenzyl)oxy)benzylidene)hydrazinyl) methaniminium chloride] |  |
| 190 to 192 | 1 to 10 | 1 to 10 | CC(=O)O.N=C(N)NN=Cc1cccc(OCc2cccc(C(F)(F)F)c2Cl)c1 [Compound 49b, 1-{[(3-{[2-chloro-3-(trifluoromethyl)phenyl]methoxy}phenyl)methylidene]amino} guanidine acetate] |  |
| 273 to 276 | 32 to 100 | 32 to 100 | Cl.N=C(N)N/N=C/c1cccc(OCc2cc(Cl)cc(Cl)c2Cl)c1Cl [Compound 51i, (E)-Amino(2-(2-chloro-3-((2,3,5-trichlorobenzyl)oxy)benzylidene)hydrazinyl) methaniminium chloride] |  |
| 245 to 247 | 10 to 32 | 10 to 32 | Cl.N=C(N)N/N=C/c1cccc(OCc2ccc(C(F)(F)F)cc2)c1Cl [Compound 51k, (E)-Amino(2-(2-chloro-3-((4-(trifluoromethyl)benzyl)oxy)benzylidene)hydrazinyl) methaniminium chloride] |  |
| 230 to 233 | 1 to 10 | 1 to 10 | Cl.N=C(N)N/N=C/c1cccc(OCc2ccc(Cl)c(Cl)c2)c1Cl [Compound 51h, (E)-Amino(2-(2-chloro-3-((3,4-dichlorobenzyl)oxy)benzylidene)hydrazinyl) methaniminium chloride] |  |
|  |  |  | N=C(N)NCc1cccc(OCc2ccc(Cl)cc2)c1.O=C(O)C(F)(F)F [Compound 4b, 1-({3-[(4-chlorophenyl)methoxy]phenyl}methyl)guanidine 2,2,2-trifluoroacetate] | MIC [1]: 1 to 10 µg/mL; MIC [2]: 1 to 10 µg/mL |
|  |  |  | Cl.N=C(N)N/N=C/c1cccc(OCc2ccc(C(F)(F)F)cc2)c1 [Compound 49f, (E)-Amino(2-(3-((4-(trifluoromethyl)benzyl)oxy)benzylidene)hydrazinyl) methaniminium chloride] | MIC E. coli ([1]; Escherichia coli strain JM109): ++ (MIC 10-32 μg/mL); MIC S. aureus [2, 3]: +++ (MIC 1-10 μg/mL) |
| 183 to 187 | 1 to 10 | 1 to 10 | CC(=O)O.N=C(N)N/N=C/c1cccc(OCc2cccc(C(F)(F)F)c2)c1Cl [Compound 51j, (E)-Amino(2-(2-chloro-3-((3-(trifluoromethyl)benzyl)oxy)benzylidene)hydrazinyl) methaniminium acetate] |  |
|  | 1 to 10 | 10 to 32 | Cl.N=C(N)N/N=C/c1cccc(OCc2cccc(Cl)c2)c1Cl [Compound 51m, (E)-Amino(2-(2-chloro-3-((3-chlorobenzyl)oxy)benzylidene)hydrazinyl) methaniminium chloride] |  |
| 191 to 193 |  |  | Cl.N=C(N)N/N=C/c1cccc(OCc2ccc(Cl)cc2)c1 |  |
|  |  |  | N=C(N)NC(=O)c1cccc(OCc2ccccc2)c1.O=C(O)C(F)(F)F [Compound 47, 3-(benzyloxy)-N-carbamimidoylbenzamide 2,2,2-trifluoroacetate] | MIC [1]: 32 to 100 µg/mL; MIC [2]: 10 to 32 µg/mL |
|  | 10 to 32 | 10 to 32 | Cl.N=C(N)N/N=C/c1nccn1Cc1ccc(Cl)cc1 [Compound 61b, (E)-Amino(2-((1-(4-chlorobenzyl)-1H-imidazol-2-yl)methylene)hydrazinyl) methaniminium chloride] |  |
|  |  |  | N=C(N)NCc1cccc(OCc2ccccc2)c1.O=C(O)C(F)(F)F [Compound 4a, 1-{[3-(benzyloxy)phenyl]methyl}guanidine 2,2,2-trifluoroacetate] | MIC [1]: > 100 µg/mL; MIC [2]: 1 to 10 µg/mL |
|  |  |  | N=C(N)NCc1cccc(OCc2cc(Cl)ccc2Cl)c1.O=C(O)C(F)(F)F [Compound 4f, 1-({3-[(2,5-dichlorophenyl)methoxy]phenyl}methyl)guanidine 2,2,2-trifluoroacetate] | MIC [1]: 10 to 32 µg/mL; MIC [2]: 1 to 10 µg/mL |
|  |  |  | COc1ccc(CNC(=N)N)cc1OCc1ccc(Cl)cc1.O=C(O)C(F)(F)F [Compound 4n, 1-({3-[(4-chlorophenyl)methoxy]-4-methoxyphenyl}methyl)guanidine 2,2,2-trifluoroacetate] | MIC [1]: > 100 µg/mL; MIC [2]: 32 to 100 µg/mL |
|  |  |  | N=C(N)NCc1cccc(N)c1.O=C(O)C(F)(F)F [Compound 53a, Amino((3-aminobenzyl)amino)methaniminium 2,2,2-trifluoroacetate] | MIC [1]: 32 to 100 µg/mL; MIC [2]: 32 to 100 µg/mL |
|  | 1 to 10 | 10 to 32 | Cl.N=C(N)N/N=C/c1cccc(OCc2cccc(Cl)c2)c1 [Compound 49e, (E)-Amino(2-(3-((3-chlorobenzyl)oxy)benzylidene)hydrazinyl)methaniminium chloride] |  |
|  |  |  | N=C(N)NCc1ccc(NS(=O)(=O)c2cccc(C(F)(F)F)c2)cc1.O=C(O)C(F)(F)F [Compound 55d] | MIC E. coli ([1]; Escherichia coli strain JM109): + (32-100 μg/mL); MIC S. aureus [2, 3]: + (32-100 μg/mL) |
|  |  |  | N=C(N)NCc1cccc(NC(=O)c2ccccc2)c1.O=C(O)C(F)(F)F [Compound 57a, Amino((3-benzamidobenzyl)amino)methaniminium 2,2,2-trifluoroacetate] | MIC [1]: 32 to 100 µg/mL; MIC [2]: 32 to 100 µg/mL |
|  | 32 to 100 | 10 to 32 | Cl.N=C(N)N/N=C/c1cccn1Cc1ccc(Cl)cc1 [Compound 61f, (E)-Amino(2-((1-(4-chlorobenzyl)-1H-pyrrol-2-yl)methylene)hydrazinyl) methaniminium chloride] |  |
|  |  |  | N=C(N)NCc1c(F)ccc(OCc2cccc(C(F)(F)F)c2)c1F.O=C(O)C(F)(F)F [Compound 4p, 1-[(2,6-difluoro-3-{[3-(trifluoromethyl)phenyl]methoxy}phenyl)methyl]guanidine 2,2,2-trifluoroacetate] | MIC [1]: 1 to 10 µg/mL; MIC [2]: 1 to 10 µg/mL |

| SMILES | melting point [°C] | MIC ([1]; Escherichia coli strain JM109) [µg/mL] | MIC [2, 3] [µg/mL] | other results |
| --- | --- | --- | --- | --- |
| N=C(N)Nc1cccc2c1CCCC2.O=C(O)C(F)(F)F [Compound 23d, 1-(5,6,7,8-tetrahydronaphthalen-1-yl)guanidine 2,2,2-trifluoroacetate] | 153 to 155 | > 100 | > 100 |  |
| N=C(N)NOCc1cccc(Oc2ccccc2)c1.O=C(O)C(F)(F)F [Compound 41b, 1-[(3-phenoxyphenyl)methoxy]guanidine 2,2,2-trifluoroacetate] |  | > 100 | > 100 |  |
| N=C(N)N1CCc2ccc(Br)cc2C1.O=C(O)C(F)(F)F [Compound 26, 7-bromo-1,2,3,4-tetrahydroisoquinoline-2-carboximidamid 2,2,2-trifluoroacetate] |  | > 100 | > 100 |  |
| N=C(N)NCc1ccc(NS(=O)(=O)c2ccc(Cl)cc2)cc1.O=C(O)C(F)(F)F [Compound 55b, Amino((4-((4-chlorophenyl)sulfonamido)benzyl)amino)methaniminium 2,2,2-trifluoroacetate] |  | 32 to 100 | 32 to 100 |  |
| N=C(N)N1CCN(c2ccc(Cl)cc2)CC1.O=C(O)C(F)(F)F.O=C(O)C(F)(F)F [Compound 44a, 4-(4-chlorophenyl)piperazine-1-carboximidamide bis-(2,2,2-trifluoroacetate)] |  | > 100 | > 100 |  |
| N=C(N)Nc1ccc(OCc2cccc(Cl)c2)cc1.O=C(O)C(F)(F)F [Compound 23c, 1-{4-[(3-chlorophenyl)methoxy]phenyl}guanidine 2,2,2-trifluoroacetate] |  | > 100 | 10 to 32 |  |
| N=C(N)Nc1ccc(OCc2ccccc2)cc1.O=C(O)C(F)(F)F [Compound 23a, 1-[4-(benzyloxy)phenyl]guanidine 2,2,2-trifluoroacetate] |  | > 100 | 1 to 10 |  |
| N=C(N)NOCc1cccc(-c2ccccc2)c1.O=C(O)C(F)(F)F [Compound 41a, 1-[(3-phenylphenyl)methoxy]guanidine 2,2,2-trifluoroacetate] |  | > 100 | > 100 |  |
| N=C(N)NCc1ccc(OCc2cccc(Cl)c2)cc1.O=C(O)C(F)(F)F [Compound 19c, 1-(4-((3-chlorobenzyl)oxy)benzyl)guanidine 2,2,2-trifluoroacetate] |  | > 100 | 10 to 32 |  |
| CC(C)(C)OC(=O)NC(=N)N1CCc2ccc(-c3ccc(C(C)(C)C)cc3)cc2C1.O=C(O)C(F)(F)F [Compound 28, tert-butyl N-[7-(4-tert-butylphenyl)-1,2,3,4-tetrahydroisoquinoline-2-carboximidoyl]carbamate 2,2,2-trifluoroacetate] |  | > 100 | 32 to 100 |  |
| N=C(N)N1CCc2ccc(OCc3cccc(Cl)c3Cl)cc2C1.O=C(O)C(F)(F)F [Compound 33, 7-[(2,3-dichlorophenyl)methoxy]-1,2,3,4-tetrahydroisoquinoline-2-carboximidamide 2,2,2-trifluoroacetate] |  | 1 to 10 | 1 to 10 |  |

From patent US20170342025A1, “ANTIMICROBIAL COMPOUNDS, COMPOSITIONS AND METHODS” (Swansea University, priority 2014, published 2017)
